Assay results taken from PMC9586938, “Picomolar fluorescent probes for compound affinity determination to carbonic anhydrase IX expressed in live cancer cells” (Scientific Reports, 2022).

Target: T1, catalytic domain of recombinant human CAIX (Homo sapiens, UniProt Q16790)
T1 construct: Isozymes CAIX, CAXII, and CAXIV were the catalytic domains of the proteins; made in house; host or cells: mammalian cells
Assay: Stopped-flow assay (SFA) of inhibition of CAIX catalytic activity
Assay type: biochemical
Procedure: The binding affinities of all fluorescein-containing compounds were determined for all 12 catalytically active CA isozymes by the thermal shift assay (TSA). […] However, the SFA technique cannot determine the affinities lower than the enzyme concentration used in the assay. […] In addition, we used isothermal titration calorimetry (ITC), the standard assay to determine affinity and enthalpy of protein–ligand binding. […] Therefore, ITC was used only to determine the enthalpy of interaction and confirm the ordering of compound affinities.
Inhibition of the CAIX catalytic activity (hydration reaction of CO2 to acid protons and bicarbonate) by selected compounds has been determined as previously described[41],[42]. The CA enzymatic activity and its inhibition were followed by the rate of change in pH spectrophotometrically followed by the change in color of indicator phenol red. Addition of increased concentrations of an inhibitor slowed the rate of the change in pH. The assay was performed using the stopped-flow equipment. The rate of spontaneous acidification due to CO2 hydration in water was subtracted from the enzymatically catalyzed rate.

Substance “3-((2-(cyclooctylamino)-3,5,6-trifluoro-4-(methylsulfonyl)phenyl)sulfonyl)-N-(3',6'-dihydroxy-3-oxo-3H-spiro[isobenzofuran-1,9'-xanthen]-5-yl)propanamide and 3-((3-(cyclooctylamino)-2,5,6-trifluoro-4-(methylsulfonyl)phenyl)sulfonyl)-N-(3',6'-dihydroxy-3-oxo-3H-spiro[isobenzofuran-1,9'-xanthen]-5-yl)propanamide [GZ20-37]” has a Ki of 1.5 µM.
